Source: patent US10799464B2, “Delivery systems” (Textile-Based Delivery, Inc., priority 2014, dated 2020)

Legend:
[1] = typical topical cream, depending on the severity of pain; cited from earlier work
[2] = Use testing of allantoin-loaded yarn; assay type: in vivo; details: 25% in RTV imbibed into 40 Denier texturized nylon yarn
Text: Allantoin, which is frequently used as an active in skin creams, was dispersed in RTV at 25%, and this matrix imbibed into a 40 Denier texturized nylon yarn. Some of this was plied with a 40 Denier nylon yarn. Another portion was air-covered with a spandex yarn.

[3] = Franz cell transdermal delivery test
Method: This was then tested in a Franz cell apparatus (Zyleris Pharmatech) for its ability to deliver the active (arecoline) transdermally.
The test article, in this case the aforementioned arecoline-loaded fabric, was placed atop a small piece of freshly excised skin, in this case from a pig's ear; below the skin was a reservoir containing bovine serum albumin buffer to simulate blood plasma. In order to reach the reservoir, the active had to diffuse transdermally across the layer of skin. Three such Franz cells were used so that the experiment was done in triplicate. A small aliquot was drawn from each reservoir at the 24-hour point and tested for arecoline as now described.
A reference arecoline solution was prepared by dissolving approximately 3 milligrams arecoline hydrobromide (ScienceLab.com) in approximately 0.5 milliliters of bovine serum albumin buffer, for an approximate concentration of about 6 milligrams/milliliter. The reference solution was spotted alongside all three samples (labelled R7, R8 and R9) on a TLC plate at the origin. After driving out the water from the spots with heat, the spotted TLC plate was allowed to cool, then developed in 100% methanol inside a developing tank. […]

[4] = Release test on fabric swatches after washing or dyeing (retention of active), absorbance at 280 nm; assay type: physicochemical
Method: This Example provides exemplary release tests on fabrics from yarns of the disclosure. These release measurements were performed on small swatches of fabric produced from yarn of the disclosure, and washed or otherwise stressed before release testing. Release was used to quantify how much active is retained intact after the stress. No coating was necessary for this test. Retention of active through stresses such as washes and scouring is a key distinguishing benefit of yarns of this disclosure and enables medicated fabrics that can be applied in a wide range of applications that demand washability in order to be commercially viable.
(§1) Aspirin (acetylsalicylic acid) was ground to a fine powder and dispersed at 25% wt/wt in Novagard 200-260. This was imbibed into a texturized 70 Denier nylon yarn, then plied with a textured 70 Denier nylon yarn. The yarn was then knitted into several sleeves.
Washing with hot detergent water was then done once (on swatch #2), 5 times (swatch #3), or 10 times (swatch #4). Swatch #1 was the control with zero washings. Each swatch, a fixed 1-inch square, was placed in water for release, and after two days the absorbance measured at 280 nanometers.
Another sleeve was dyed using a standard dyeing process, which included scouring at the upper limit of the normal range of temperatures in dyeing, namely 220° F. for 45 minutes. […] Over 50% potency was retained through this intense process.

[5] = Informal wear test of aspirin sleeve; assay type: in vivo; details: sleeve worn on the elbow or knee
Text: as §1

COc1cc(CNC(=O)CCCC/C=C/C(C)C)ccc1O [capsaicin]
effective daily dose for relief in the foot, ankle, and calf [1]: 0.5 to 6 mg

NC(=O)NC1NC(=O)NC1=O (stereo not drawn) [Allantoin]
skin effect (in words) [2]: skin-soothing, softening effect

COC(=O)C1=CCCN(C)C1 [arecoline]
concentration of arecoline in the reservoirs ([3]; 24-hour point, uncoated fabric of polyester yarn imbibed with 10% arecoline hydrobromide in Novagard 200-260, TLC spot intensity vs reference): ~5 milligrams/milliliters
transdermal delivery (in words) ([3]; pig ear skin Franz cell model, imbibed yarn): effective

CC(=O)Oc1ccccc1C(=O)O [Aspirin, acetylsalicylic acid]
Absorbance (at 280 nm) ([4]; 1 wash with hot detergent water, 1-inch square swatch in water, two days): 0.077
Absorbance (at 280 nm) ([4]; 5 washes with hot detergent water, 1-inch square swatch in water, two days): 0.038
Absorbance (at 280 nm) ([4]; 10 washes with hot detergent water, 1-inch square swatch in water, two days): 0.045
Absorbance (at 280 nm) ([4]; Control (0 washes), 1-inch square swatch in water, two days): 0.097
Absorbance (at 280 nm) ([4]; Dyed (scouring at 220° F. for 45 minutes)): 0.051
retention of the active ([4]; after 10 washings): about 45%
potency retained ([4]; after standard dyeing process, scouring 220° F. for 45 minutes): Over 50%
analgesia (in words) [5]: significant analgesia
